According to patent US20260250247A1, “NOVEL INDOLINE DERIVATIVE AND USE THEREOF” (CK REGEON INC., priority 2023, published 2026):
Structures can show the parent of a compound that is named as a salt.

Columns and labels:
[1] = test system: 3T3-L1 pre-adipocytes; assay: Inhibition of adipocyte differentiation and lipid accumulation, Oil Red O; format: cell-based; conditions: 3T3-L1, compound 1 μM, MDI-induced differentiation for 8 days, Oil Red O eluted, absorbance 544 nm; for activity at 1 µM: Mus musculus, 192 h, read-out: lipid accumulation rate
Procedure: 3T3-L1 cells were seeded in a 6-well plate at a density of […] cells per well. The cells were grown to 100% confluency in Dulbecco's modified Eagle's medium (DMEM) supplemented with 10% bovine calf serum (BCS; GIBCO). Two days after reaching 100% confluency, differentiation was induced with or without treatment with the indoline compound at a concentration of 1 μM in DMEM containing 10% fetal bovine serum (FBS; GIBCO) and MDI (520 μM methylisobutylxanthine (IBMX; Sigma-Aldrich), 1 μM dexamethasone (Sigma-Aldrich), and 5 μM insulin (GIBCO)). On day 3, the medium was replaced with DMEM containing 10% FBS and 5 μM insulin with or without the indoline compound, and then with a fresh identical medium every 2 days. After differentiation for 8 days, the culture medium was removed, and the cells were washed with PBS and then fixed with 10% formaldehyde for 1 hour. After removing the 10% formaldehyde, the cells were washed thoroughly with distilled water. After that, 60% isopropanol was added and immediately then removed. After washing with distilled water, lipid droplets were stained with an Oil Red O dye solution for 20 minutes and then washed with distilled water. The cells were counterstained with Mayer's hematoxylin. Oil Red O images were visualized using a bright-field microscope (Nikon TE-2000U). To quantify the accumulated lipids, Oil Red O was eluted by adding isopropanol, and absorbance was measured spectrophotometrically at 544 nm using a multi-plate reader.
As A3051 (KY19382) and A3334, self-developed and synthesized materials were used. As BIO, or GSK 3 Inhibitor IX, also known as 6-bromoindirubin-3′-oxime, HY-10580 was purchased commercially.
In FIG. 2, the undifferentiated group (Un Diff) refers to undifferentiated adipocytes, or preadipocytes that had not been induced to differentiate, and the differentiated group (Diff) refers to fully differentiated adipocytes.

[2] = target: CXXC5-Dvl interaction (PDZ domain of Dvl (dishevelled) protein / PTD-DBM-FITC); assay: CXXC5-Dvl binding inhibition, competition of PTD-DBM-FITC on plate-bound Dvl PDZ domain; conditions: purified Dvl PDZ domain 5 μg/mL, 10 μM PTD-DBM-FITC, compounds 0.001-100 μM, FITC fluorescence
Procedure: 5 μg/mL of the purified PDZ domain ofDvl (dishevelled) protein was attached to the bottom of a 96-well black immunoplate and left in a chamber at 4° C. for one day. The next day, each well was washed with PBS and 10 μM PTD-DBM-FITC was added. After incubation at room temperature for 3 hours, each well was washed with PBS. Each well was treated with the indoline derivatives at various concentrations (100, 10, 1, 0.1, 0.01, and 0.001 μM) in 100 μL of PBS. After washing with a buffer, fluorescence was measured by FITC using a microplate reader. A competition binding curve showing the degree of CXXC5-Dvl PPI inhibition was constructed using the GraphPad Prism software, and the IC50 value was calculated. […] CK090), and the intermediate compound 5-cyanoindirubin as controls.

[3] = test system: lipid droplets / PPARγ in liver tissue; assay: Liver Oil Red O staining and PPARγ immunohistochemistry in MASH mice; format: in vivo, C57BL/6N mice; conditions: 25 mg/kg/day orally for 4 weeks
Procedure: (§1) Five-week-old wild-type male C57BL/6N mice were purchased from Orient Bio Co., Ltd. They were allowed to acclimate to the laboratory environment for one week. Mice weighing 18-20 g on average were used in the experiment. To ensure ethical and scientific validity and efficient management of animal experiments, the experiment was conducted with the approval of the Institutional Review Board (IACUC-A-202205-1472-01) of Severance Hospital, Yonsei University College of Medicine.
(§2) The mice were divided into a normal group (NCD) and a high-fat diet group (HFD). The normal group (NCD) was fed a normal chow diet (NCD, Teklad Global 18% protein rodent diet), and the high-fat diet group (HFD) was fed a high-fat diet (HFD, D12492) in which fat accounted for 60% of the total calories, for 8 weeks.
(§3) Mice induced with metabolic dysfunction-associated steatohepatitis (MASH) (hereinafter, referred to as MASH or MASH group) were prepared by administering CCl4 intraperitoneally twice a week for 4 weeks after feeding the high-fat diet (HFD) for 8 weeks. The […] was diluted with corn oil at a ratio of 1:19 and injected at a dosage of 2 mL/kg. The normal group (NOD) was administered the same volume of physiological saline.
(§4) The animals were divided into 7 groups, each with 10 animals.
It was investigated whether the accumulation of triglycerides in the liver is suppressed effectively. For this purpose, liver tissue was extracted from each group, and it was prepared into 10-μm thick cryosections, which were then stained with Oil Red O. Details are as follows. After preparing the 7 groups, the animals were euthanized using carbon dioxide and the liver tissues were extracted. A certain area of the extracted liver tissue was cryosectioned to 10 μm thickness, fixed in 4% neutral paraformaldehyde for 20 minutes at room temperature, and washed with 70% isopropanol (Duksan Pure Chemicals). After staining with the Oil Red O (Sigma-Aldrich) reagent for 20 minutes, the sections were washed thoroughly three times with distilled water. The tissue was counterstained with Mayer's hematoxylin. Then, Oil Red O staining images were visualized using a bright-field microscope (Nikon TE-2000U).
After preparing the 7 groups, the animals were sacrificed using carbon dioxide and the liver tissues were extracted. The extracted tissues were fixed in 4% neutral paraformaldehyde and embedded in paraffin to prepare sections. The paraffin sections were cut to 4-μm thickness, deparaffinized, and then rehydrated. For antigen exposure, slides were autoclaved in a 10 mM sodium citrate buffer (pH 6.0). To block endogenous peroxidase activity prior to peroxidase IHC analysis, the tissues were incubated with 0.3% H2O2 for 10 minutes. The incubated sections were treated with phosphate-buffered saline (PBS) containing 10% NGS and 0.3% Tween-20 for 1 hour at room temperature, treated with primary antibodies of anti-PPARγ (1:50; Abcam), and incubated overnight at 4° C.
The sections treated with the primary antibodies were washed with PBS and incubated with biotinylated anti-mouse (1:400; Dako) or anti-rabbit (1:400; Dako) secondary antibodies for 1 hour at room temperature. The sections incubated with the secondary antibodies were stained with 3,3′-diaminobenzidine (DAB; Dako) for 3-7 minutes and then counterstained with Mayer's haematoxylin. All incubations were performed in a humid chamber. After the staining, images were taken and analyzed using a bright-field microscope (Nikon TE-2000U).

[4] = test system: mice induced with metabolic dysfunction-associated steatohepatitis (MASH); assay: Liver fibrosis score from collagen staining (Picrosirius red) in MASH mice; format: in vivo, C57BL/6N mice; conditions: 25 mg/kg/day orally for 4 weeks; mean±SD; normal group 0, MASH group 3.11
Procedure: as §1, §2, §3, §4
After preparing the 7 groups, the animals were euthanized using carbon dioxide and the liver tissues were extracted. The extracted tissues were fixed in 4% neutral paraformaldehyde and embedded in paraffin to prepare sections. The paraffin sections were cut to 4-μm thickness, deparaffinized, and then rehydrated. The hydrated sections were stained with a Weigert's iron hematoxylin solution for 8 minutes and then with Picrosirius red for 1 hour. Collagen fibers were stained red and nuclei were stained blue. The sections were photographed using a bright-field microscope (Nikon TE-2000U).
The main mechanism of nonalcoholic fatty liver disease is the induction of hepatic stellate cell activation, which induces collagen production and leads to liver fibrosis due to collagen accumulation. From the result of collagen staining (Picrosirius red) for observing the total amount of collagen deposition in Test Example 3-6, the liver fibrosis score was analyzed. Stages 2 to 3 were diagnosed as nonalcoholic fatty liver disease (MASH) (M. Brunt et al., 2005).
All quantitative data are presented as mean±standard deviation (SD). In each experiment, all measurements were made at least three times, and data were analyzed using the two-tailed, unpaired Student's t test. P values of <0.05 were considered statistically significant.

Row | Structure (SMILES) | IC50 [2] [nM] | activity at 1 µM [1] [%] | lipid droplet formation and lipid infiltration in liver, Oil Red O staining [3] | Degree of liver fibrosis (fibrosis score) [4] | lipid accumulation rate [1] [%]
1 | N#Cc1ccc2c(c1)/C(=C1/Nc3ccccc3/C1=N\OCCCN1CCNCC1)C(=O)N2 [Example 9, (2Z,3E)-2′-oxo-3-((3-(piperazin-1-yl)propoxy)imino)-[2,3′-biindolinylidene]-5′-carbonitrile] | 20.4 | 25.4 |  |  | 
2 | N#Cc1ccc2c(c1)/C(=C1/Nc3ccccc3/C1=N\OCCCN1CCSCC1)C(=O)N2 [Example 12, (2Z,3E)-2′-oxo-3-((3-thiomorpholinopropoxy)imino)-[2,3′-biindolinylidene]-5′-carbonitrile] | 6.26 | 27.4 |  |  | 
3 | N#Cc1ccc2c(c1)/C(=C1/Nc3ccccc3/C1=N\OCCN1CCCC1C(=O)O)C(=O)N2 (stereo not shown) [Example 15, (2-((((2Z,3E)-5′-cyano-2′-oxo-[2,3′-biindolinidene]-3-ylidene)amino)oxy)ethyl)proline] | 45.2 | 24.8 |  |  | 
4 | Cc1cc2c(cc1Cl)NC(=O)/C2=C1\Nc2ccccc2\C1=N/OCCN1CCN(C)CC1 [CK090, (2Z,3E)-6′-chloro-5′-methyl-3-((2-(4-methylpiperazin-1-yl)ethoxy)imino)-[2,3′-biindolinylidene]-2′-one, reference compound] | 4220 |  |  |  | 
5 | CN1CCN(CCCO/N=C2/C(=C3/C(=O)Nc4ccc(C#N)cc43)Nc3ccccc32)CC1 [Example 11, (2Z,3E)-3-((3-(4-methylpiperazin-1-yl)propoxy)imino)-2′-oxo-[2,3′-biindolinylidene]-5′-carbonitrile] | 12.3 | 24.1 |  |  | 
6 | O=C1Nc2ccccc2/C1=C1/Nc2ccccc2C1=O [Indirubin, (Z)-[2,3′-biindolinylidene]-2′,3-dione, reference compound] | 53900 | 96.4 |  |  | 
7 | COc1ccc2c(c1)/C(=C1/Nc3ccccc3/C1=N\O)C(=O)N2 [Example A3334, reference compound] |  |  |  |  | 78.7
8 | O=C1Nc2cc(Br)ccc2/C1=C1/Nc2ccccc2/C1=N\O [BIO, 6-bromoindirubin-3′-oxime, reference compound] |  |  |  |  | 79.4

Now from value to molecule, other results behind:

Row | IC50 [2] [nM] | Structure (SMILES) | activity at 1 µM [1] [%] | lipid droplet formation and lipid infiltration in liver, Oil Red O staining [3] | Degree of liver fibrosis (fibrosis score) [4] | lipid accumulation rate [1] [%]
9 | 37 | N#Cc1ccc2c(c1)/C(=C1/Nc3ccccc3/C1=N\OCCN1CCCC1)C(=O)N2 [Example 6, (2Z,3E)-2′-oxo-3-((2-(pyrrolidin-1-yl)ethoxy)imino)-[2,3′-biindolinylidene]-5′-carbonitrile] | 25.8 |  |  | 
10 | 8.61 | N#Cc1ccc2c(c1)/C(=C1/Nc3ccccc3/C1=N\OCCN1CCOCC1)C(=O)N2 [Example 2, (2Z,3E)-3-((2-morpholinoethoxy)imino)-2′-oxo-[2,3′-biindolinylidene]-5′-carbonitrile] | 32.3 | the size and number of lipid droplets were significantly reduced | 1.85 | 
11 | 2.65 | N#Cc1ccc2c(c1)/C(=C1/Nc3ccccc3/C1=N\OCCN1CCS(=O)(=O)CC1)C(=O)N2 [Example 13, (2Z,3E)-3-((2-(1,1-dioxidothiomorpholino)ethoxy)imino)-2′-oxo-[2,3′-biindolinidene]-5′-carbonitrile] | 26.6 |  |  | 
12 | 9.29 | N#Cc1ccc2c(c1)/C(=C1/Nc3ccccc3/C1=N\OCCN1CCCCC1)C(=O)N2 [Example 5, (2Z,3E)-2′-oxo-3-((2-(piperidin-1-yl)ethoxy)imino)-[2,3′-biindolinylidene]-5′-carbonitrile] | 26.2 |  |  | 
13 | 10.8 | N#Cc1ccc2c(c1)/C(=C1/Nc3ccccc3/C1=N\OCCCN1CCCCC1)C(=O)N2 [Example 7, (2Z,3E)-2′-oxo-3-((3-(piperidin-1-yl)propoxy)imino)-[2,3′-biindolinylidene]-5′-carbonitrile] | 33.6 |  |  | 
14 | 26.1 | N#Cc1ccc2c(c1)/C(=C1/Nc3ccccc3/C1=N\OCCN1CC[S+]([O-])CC1)C(=O)N2 [Example 14, (2Z,3E)-3-((2-(1-oxidothiomorpholino)ethoxy)imino)-2′-oxo-[2,3′-biindolinidene]-5′-carbonitrile hydrochloride] | 26.8 |  |  | 
15 | 12.7 | N#Cc1ccc2c(c1)/C(=C1/Nc3ccccc3/C1=N\OCCCN1CCOCC1)C(=O)N2 [Example 10, (2Z,3E)-3-((3-morpholinopropoxy)imino)-2′-oxo-[2,3′-biindolinylidene]-5′-carbonitrile] | 24.3 |  |  | 
16 | 17.2 | N#Cc1ccc2c(c1)/C(=C1/Nc3ccccc3/C1=N\OCCCN1CCCC1)C(=O)N2 [Example 8, (2Z,3E)-2′-oxo-3-((3-(pyrrolidin-1-yl)propoxy)imino)-[2,3′-biindolinylidene]-5′-carbonitrile] | 25.1 |  |  | 
